{
  "source": "patent US8729048B2",
  "about": "“Methods and materials for assessing responsiveness to PARP inhibitors and platinating agents” (Mayo Foundation for Medical Education and Research, priority 2011, dated 2014)",
  "key": {"[1]": {"tested_on": "poly(ADP-ribose) polymer (pADPr) in PEO1 cells", "assay": "Immunoblotting for poly(ADP-ribose) polymer", "format": "cell-based", "conditions": "72 hours, ABT-888 0-40 μM", "description": "FIG. 2. DNA-PK is activated following PARP inhibitor exposure in PEO1 cells. (A) Western blots for poly(ADP-ribose) polymer (pADPr) and phosphorylation of DNA-PK substrates (DNA-PKcs autophosphorylation at Thr^2609 and Histone H2AX at Ser^139) in PEO1 cells following 72 hours exposure to increasing concentrations of ABT-888 (0, 0.625, 1.25, 2.5, 5, 10, 20, and 40 μM). Hsp90, total DNA-PKcs, and Histone H1 are used as loading controls. […] (C) Quantitation of cells positive for phospho-H2AX foci in PEO1 and PEO4 cells, following treatment with DMSO, 500 nM DNA-PKi, 20 μM ABT-888 (ABT), ABT-888 and DNA-PKi, 50 μM Etoposide (Etop), or 5 Gy ionizing radiation (IR). […]\nCells were washed twice with calcium- and magnesium-free Dulbecco's phosphate-buffered saline (PBS) and solubilized in 6 M guanidine hydrochloride containing 250 mM Tris-HCl, pH 8.5 at 20° C., 10 mM EDTA, 1% (v/v) 2-mercaptoethanol, and 1 mM freshly added phenylmethylsulfonyl fluoride. After preparation for electrophoresis as described elsewhere (Kaufmann et al., Blood, 89:2098-2104 (1997)), aliquots containing 50 μg of protein (determined by the bicinchoninic acid method—S10) were separated on SDS-polyacrylamide gels containing 8% (w/v) acrylamide, electrophoretically transferred to nitrocellulose, and probed with immunological reagents as described elsewhere (Kaufmann, Anal. Biochem., 296:283-286 (2001)). […]"}, "[2]": {"tested_on": "BRCA1-deficient HCC1937 cells", "assay": "Clonogenic assay, HCC1937", "format": "cell-based", "conditions": "continuous exposure, 125 nM DNA-PKi", "description": "FIG. 6. […] (A) BRCA1-deficient HCC1937 and BRCA1-reconstituted HCC1937/BRCA1 cells were continuously exposed to ABT-888 in the presence or absence of 125 nM DNA-PKi and assayed for clonogenic survival. Inset, Western blots of cell lysates from HCC1937 and HCC1937/BRCA1. (B) Western blots of M059J and reconstituted M059J+DNA-PKcs lines showing the restoration of DNA-PK expression and the shRNA-mediated knockdown of BRCA1. (C) Clonogenic survival of shRNA transfected M059J/M059J+DNA-PKcs lines treated with ABT-888 for 72 hours. (D) Clonogenic survival of ATM-deficient GM16666 or ATM-reconstituted GM16667 fibroblasts. Cells were exposed to ABT-888 for 48 hours in the presence or absence of 250 nM DNA-PKi, washed, and allowed to form colonies. Inset, Western blots of lysates from GM16666 and GM16667 fibroblasts. […] Results are representative of 3 independent experiments.\nColony formation assays were performed on siRNA-transfected PEO1 and PEO4 cells 48 hours after the second transfection. Cells were trypsinized and plated at 750 cells/plate in triplicate 60-mm dishes containing medium A, allowed to grow 10-14 days, and stained with Coomassie Brilliant Blue. Colonies containing ≧50 cells were scored manually. […]"}},
  "data": [
    {"smiles": "C[C@]1(c2nc3c(C(N)=O)cccc3[nH]2)CCCN1", "note": "[ABT-888]", "values": [
      {"measurement": "poly(ADP-ribosyl)ation", "setting": "[1]", "result": "decreased"}
    ]},
    {"smiles": "CCN1CCN(CC(=O)Nc2ccc(-c3cccc4c(=O)cc(N5CCOCC5)oc34)c3sc4ccccc4c23)CC1", "note": "[AZ 12594248]", "values": [
      {"measurement": "effect on ABT-888 sensitivity (clonogenic survival)", "setting": "[2]", "result": "diminished ABT-888 sensitivity"}
    ]}
  ]
}
